Entries after “also recorded” stand apart in the source; their conditions may differ. Where two headings read alike, the source gives them in different places.
Columns and labels:
[1] = molecular target: T1, α-glucosidase (from Saccharomyces cerevisiae EC 3.2.1.20) (Saccharomyces cerevisiae, UniProt P53341); assay: biochemical
T1 construct: purchased Sigma
Protocol: The method described by Azizian et al. with some modifications was used to assess αglucosidase inhibitory activity of novel derivatives of phenyl carbamoyl methoxy thiosemicarbazone. The enzyme solution was prepared of αglucosidase (1 U/mL) in a […] phosphate buffer (pH: 6.8). The final volume of assay solution in the 96-well plate was 200 µl, which was prepared in the following order: 20 µl of the enzyme solution was used to obtain a final enzyme activity of […] per well. 20 µl of various concentrations of novel inhibitors (1000, 500, 250, 125, 62.5, 31.25, and 15.62 µM) and potassium phosphate buffer (135 µl, pH = 6.8). The 96-well plate was incubated for 10 min at 37 °C and pNPG as substrate (25 µl, 4 mM) was added to each well of the plate and was incubated again for 30 min at 37 °C. Finally, absorbance was measured at 405 nm using a spectrophotometer (BioTek ELx808, USA). […] The IC50 values for the tested inhibitors were calculated using Microsoft Excel 2016 software and non-linear regression analysis.

[2] = MTT cytotoxicity assay on A549 cells; type: cell-based; settings: human, A549 cells (non-small cell lung carcinoma cell line), 24 h, MTT, read-out: cell viability rate; for viability at 24 h, 12.5 µM: A549, 12.5 µM; for viability at 24 h, 25 µM: A549, 25 µM; for viability at 24 h, 50 µM: A549, 50 µM; for viability at 24 h, 100 µM: A549, 100 µM
Protocol: (§1) To evaluate the cytotoxic effects of novel derivatives of phenyl carbamoyl methoxy thiosemicarbazone, an MTT assay was conducted using the non-small cell lung carcinoma cell line A549 and the MDA-MB-453 human breast cancer cell line. Both cell lines were obtained from the Pasteur Institute in Iran, and the assay was performed following the method of Jelena et al.[15], with some minor modifications.
(§2) In short, 100 µl of A549 cells (1 × 10^5) cultured in DMEM (Dulbecco’s modified Eagle’s medium) enriched with 10% foetal bovine serum (FBS) and 100 U/mL penicillin. […] streptomycin were added to each well in a 96-well plate, and they were incubated at 37 °C and 5% CO2 for 24 h. Also, 100 µl of MDA-MB-453 cells (1 × 10^5) cultured in RPMI enriched with 10% FBS and 100 U/mL penicillin and […] streptomycin were added to each well in a 96-well plate and were incubated at 37 °C and 5% CO2 for 24 h. Subsequently, the medium in both cell lines was replaced with different concentrations (12.5, 25, 50, and 100 µM) of two derivatives of 7e and 7 g, and plates were incubated at 37 °C and 5% CO2 for 24 h. After that, 10 µl of MTT (3–4, 5 dimethyl thiazol- 2 yl)-2, 5- diphenyl tetrazolium bromide) (Sigma USA) dye ([…] in PBS) was added to each well and incubated for 4 h at 37 °C. After 4 h, the solution was removed from the cells, and 100 µl of DMSO (dimethyl sulfoxide) was added to the wells. The optical density of each well was measured at 570 nm using an ELISA reader (BioTek ELx808, USA). The wells containing more cells have a higher optical density (OD) than those with fewer cells. Therefore, the wells with more cells can be identified using the following equation and compared with the control sample. Toxicity%=1−mean OD of sample/mean OD of control∗100 viability%=100−Toxicity %
(§3) PBS buffer and 1% Triton X-100 were negative and positive controls, respectively. All tests were conducted in triplicate.

[3] = system: non-small cell lung carcinoma cell line A549; assay: MTT cytotoxicity assay on A549 cells; type: cell-based; settings: A549
Protocol: as §1, §2, §3

α-glucosidase = molecular target: T2, α-glucosidase (Saccharomyces cerevisiae, UniProt P53341); assay: Kinetic study of α-glucosidase inhibition (Lineweaver-Burk and secondary plots); type: biochemical
T2 construct: purchased Sigma
Protocol: Kinetic studies were conducted to determine the inhibition mechanism of the strongest novel inhibitor with the lowest IC50. […] The experimental inhibitor constant[42] was made using secondary plots.
This was achieved using Lineweaver–Burk plots to determine the type of inhibition mechanism and the Km value. […] This mode of inhibition is particularly advantageous for antidiabetic therapy, as it facilitates glucose-dependent modulation of enzyme activity. […] These attributes highlight the promise of 7e as a therapeutic agent for managing postprandial glucose levels in individuals with type 2 DM.

[4] = MTT cytotoxicity assay on MDA-MB-453 cells; type: cell-based, human; settings: human, MDA-MB-453 cells (breast cancer cell line), 24 h, MTT, read-out: cell survival rate / cell viability; for viability at 24 h, 12.5 µM: MDA-MB-453, 12.5 µM; for viability at 24 h, 25 µM: MDA-MB-453, 25 µM; for viability at 24 h, 50 µM: MDA-MB-453, 50 µM; for viability at 24 h, 100 µM: MDA-MB-453, 100 µM
Protocol: as §1, §2, §3

[5] = system: MDA-MB-453 human breast cancer cell line; assay: MTT cytotoxicity assay on MDA-MB-453 cells; type: cell-based; settings: MDA-MB-453
Protocol: as §1, §2, §3

[6] = pNPG substrate, pH 6.8, 37 °C, mean ± SD, n = 3, read-out: IC50 (µM) ± SD, α-glucosidase inhibitory activity

T1 sequence (P53341 whole entry): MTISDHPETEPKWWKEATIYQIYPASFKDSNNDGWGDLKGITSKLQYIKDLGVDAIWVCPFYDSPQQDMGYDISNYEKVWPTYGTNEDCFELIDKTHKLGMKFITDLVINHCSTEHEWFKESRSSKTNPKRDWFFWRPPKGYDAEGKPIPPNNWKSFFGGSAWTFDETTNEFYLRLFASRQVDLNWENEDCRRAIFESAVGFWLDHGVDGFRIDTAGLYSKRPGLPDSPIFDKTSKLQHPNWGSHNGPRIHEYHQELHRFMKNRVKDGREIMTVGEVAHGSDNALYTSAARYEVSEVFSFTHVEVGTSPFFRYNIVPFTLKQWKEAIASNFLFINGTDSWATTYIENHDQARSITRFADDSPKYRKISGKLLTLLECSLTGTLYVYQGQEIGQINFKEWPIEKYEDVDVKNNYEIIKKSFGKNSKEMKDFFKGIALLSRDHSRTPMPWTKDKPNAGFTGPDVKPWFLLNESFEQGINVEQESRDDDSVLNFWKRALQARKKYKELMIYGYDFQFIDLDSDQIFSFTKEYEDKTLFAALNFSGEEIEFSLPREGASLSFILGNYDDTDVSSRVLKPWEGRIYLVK
T2 sequence (P53341 whole entry): as above

Compound COc1cc(/C=N\NC(N)=S)ccc1OCC(=O)Nc1cccc(C)c1C [Compound 7j, 2-{4-[(Z)-[(carbamothioylamino)imino]methyl]-2-methoxyphenoxy}-N-(2,3-dimethylphenyl) acetamide] has an IC50 [1] of 103.91 ± 0.028 µM.

COc1cc(/C=N\NC(N)=S)ccc1OCC(=O)Nc1cccc([N+](=O)[O-])c1 [Compound 7f, 2-{4-[(Z)-[(carbamothioylamino)imino]methyl]-2-methoxyphenoxy}-N-(3-nitrophenyl) acetamide] gave an IC50 [1] of 328.17 ± 0.083 µM.

COc1cc(/C=N\NC(N)=S)ccc1OCC(=O)Nc1ccc(Cl)cc1 [Compound 7k, 2-{4-[(Z)-[(carbamothioylamino)imino]methyl]-2-methoxyphenoxy}-N-(4-chlorophenyl) acetamide] showed an IC50 [1] of 442.41 ± 0.009 µM.

With COc1cc(/C=N\NC(N)=S)ccc1OCC(=O)Nc1cccc(C)c1 [Compound 7e, 2-{4-[(Z)-[(carbamothioylamino)imino]methyl]-2-methoxyphenoxy}-N-(3-methylphenyl) acetamide] the viability at 24 h, 12.5 µM [2] was 95.5%, the viability at 24 h, 25 µM [2] was 84.3% and the viability at 24 h, 50 µM [2] was 75.2%. For the same compound, the viability at 24 h, 100 µM [2] was 63.7%, the “cytotoxic activity (in words)” value [3] was “did not possess important cytotoxic activity; also recorded: low cytotoxicity” and the Ki (α-glucosidase) was 34.8 µM. The “Type of inhibition mechanism” value (α-glucosidase; Lineweaver–Burk plots) was “competitive inhibitor”, the “Vmax with increasing inhibitor concentration” value (α-glucosidase; inhibitor 0-250 µM) was “remained unchanged” and the IC50 [1] was 23.95 ± 0.038 µM. It also gave a viability at 24 h, 12.5 µM [4] of 97.4%, a viability at 24 h, 25 µM [4] of 74.7% and a viability at 24 h, 50 µM [4] of 66.3%. For the same compound, the viability at 24 h, 100 µM [4] was 57.2% and the “cytotoxic activity (in words)” value [5] was “did not possess important cytotoxic activity; also recorded: low cytotoxicity”.

COc1cc(/C=N\NC(N)=S)ccc1OCC(=O)Nc1ccc(C)cc1 [Compound 7b, 2-{4-[(Z)-[(carbamothioylamino)imino]methyl]-2-methoxyphenoxy}-N-(4-methylphenyl) acetamide] gave an IC50 [1, 6] of 151.18 ± 0.02 µM.

With COc1cc(/C=N\NC(N)=S)ccc1OCC(=O)Nc1ccc(Br)cc1 [Compound 7h, N-(4-bromophenyl)-2-{4-[(Z)-[(carbamothioylamino)imino]methyl]-2-methoxyphenoxy} acetamide] the IC50 [1, 6] was 573.67 ± 0.043 µM.

COc1ccc(NC(=O)COc2ccc(/C=N\NC(N)=S)cc2OC)cc1 [Compound 7m, 2-{4-[(Z)-[(carbamothioylamino)imino]methyl]-2-methoxyphenoxy}-N-(4-methoxyphenyl) acetamide] showed an IC50 [1, 6] of 436.5 ± 0.062 µM.

COc1cc(/C=N\NC(N)=S)ccc1OCC(=O)Nc1ccc(C)cc1C [Compound 7l, 2-{4-[(Z)-[(carbamothioylamino)imino]methyl]-2-methoxyphenoxy}-N-(2,4-dimethylphenyl) acetamide] showed an IC50 [1] of 122.72 ± 0.098 µM.

Work on CCc1ccc(NC(=O)COc2ccc(/C=N\NC(N)=S)cc2OC)cc1 [Compound 7c, 2-{4-[(Z)-[(carbamothioylamino)imino]methyl]-2-methoxyphenoxy}-N-(4-ethylphenyl) acetamide] yielded an IC50 [1, 6] of 95.99 ± 0.273 µM.

For COc1cc(/C=N\NC(N)=S)ccc1OCC(=O)Nc1ccccc1F [Compound 7n, 2-{4-[(Z)-[(carbamothioylamino)imino]methyl]-2-methoxyphenoxy}-N-(2-fluorophenyl) acetamide], the IC50 [1] was 95.65 ± 0.056 µM.

“2-{4-[(Z)-[(carbamothioylamino)imino]methyl]-2-methoxyphenoxy}-N-(4-methylphenyl) acetamide [Compound 7i]” showed an IC50 [1, 6] of 125.9 ± 0.016 µM.

In the case of COc1cc(/C=N\NC(N)=S)ccc1OCC(=O)Nc1ccccc1Cl [7 g, 2-{4-[(Z)-[(carbamothioylamino)imino]methyl]-2-methoxyphenoxy}-N-(2-chlorophenyl) acetamid], the viability at 24 h, 12.5 µM [2] is reported as 96.2%, the viability at 24 h, 25 µM [2] is reported as 72.4% and the viability at 24 h, 50 µM [2] is reported as 57.3%. The viability at 24 h, 100 µM [2] was 27.7%, the IC50 [1] was 62.2 ± 0.411 µM and the viability at 24 h, 12.5 µM [4] was 89.6%. For the same compound, the viability at 24 h, 25 µM [4] was 66.7%, the viability at 24 h, 50 µM [4] was 50.6% and the viability at 24 h, 100 µM [4] was 41%.

With COc1cc(/C=N\NC(N)=S)ccc1OCC(=O)Nc1ccccc1 [Compound 7a, 2-{4-[(Z)-[(carbamothioylamino)imino]methyl]-2-methoxyphenoxy}-N-phenylacetamide] the IC50 [1] was 257 ± 0.491 µM.

COc1cc(C=NNC(N)=S)ccc1OCC(=O)NCc1ccccc1 [Compound 7d] gave an IC50 [1] of 216.42 ± 0.025 µM.

Source: PMC12587786, “In vitro α-glucosidase inhibition, molecular dynamics and docking study of phenyl carbamoyl methoxy thiosemicarbazone derivatives as potential anti-diabetic agents” (Journal of Enzyme Inhibition and Medicinal Chemistry, 2025)
